# Reference: paper PMC10891214, “Effects of food and ethnicity on the pharmacokinetics of venadaparib, a next-generation PARP inhibitor, in healthy Korean, Caucasian, and Chinese male subjects” (Investigational New Drugs, 2023)
# Columns and labels:
# [1] = set-up: method as in data on file (NCT03317743); details: ref data on file (NCT03317743), cited from earlier work
# PARP3 = test system: PARP3; set-up: method as in PMID 36808277; details: cited from earlier work
# [2] = in vivo
# Protocol: Safety was assessed in all subjects who received the study drug at least once throughout the study based on adverse event (AE) monitoring, physical examinations, vital signs, 12-lead electrocardiograms (ECGs), and clinical laboratory tests.
# To support the evaluation of the relationship between concentration and QT/corrected QT (QTc) interval effects in the early stage of the clinical development of venadaparib, triplicate ECG tests were conducted in the middle of the study [22]. A triplicate ECG test was conducted in three Caucasian and five Chinese subjects after the protocol amendment. […] Fridericia’s corrected QT interval (QTcF) was collected, along with the existing ventricular rate, PR interval, QRS duration, QT interval, and QTcB. Triplicate ECGs were measured three times at intervals of 30 s to 2 min at each time point after at least 5 min of resting, and the median value of the three measurements was considered a representative value. QTcF and QTcB were calculated using the following population-derived correction equations: QTcF = QT/RR^0.33 and QTcB = QT/RR^0.5 [22].
# [3] = test system: cancer cell lines with BRCA mutations; set-up: method as in PMID 36808277; details: cited from earlier work
# [4] = test system: poly(ADP-ribose) formation; set-up: method as in PMID 36808277, PMID 24162931, PMID 33657415; details: cited from earlier work
# [5] = Pharmacokinetics after a single oral administration of venadaparib 80 mg (fasted or fed state) in healthy male subjects; type: in vivo, human; details: for AUCinf / AUClast / CL/F / Cmax / Vd/F / t1/2 / Tmax: 80 mg single oral; for AUCinf / AUClast / CL/F / Cmax / Vd/F / t1/2: mean ± SD; for Tmax: median (minimum–maximum); for AUCinf geometric mean ratio (90% confidence interval) / AUClast geometric mean ratio (90% confidence interval) / Cmax geometric mean ratio (90% confidence interval): fed to fasted state
# Protocol: A randomized, open-label, single-dose, two-sequence, and two-period crossover study was conducted with 12 Korean and 12 Caucasian subjects. Subjects in each ethnic group were randomly assigned to one of the two sequences at a ratio of 1:1 (Fig. 1). The subjects were orally administered 80 mg of venadaparib in each treatment period (fasted or fed state), following an overnight fast of at least 10 h. There was a seven-day washout between the two treatment periods. In the fed state, the subjects consumed an entire high-fat meal (total of 800–1000 kcal, fat of 500–600 kcal) within 20 min and were subsequently administered the study drug with 240 mL of water 30 min after the start of the meal. An open-label, single-dose study was conducted on 12 Chinese subjects who received 80 mg of venadaparib only in the fasted state (Fig. 1).
# Based on the PK results of venadaparib in a previous study (NCT03317743), serial blood samples for the PK analysis of venadaparib were collected at 0 (pre-dose), 0.25, 0.5, 1, 2, 3, 4, 6, 8, 10, 12, 24, 36, 48, and 72 h post-dose for all treatment and ethnic groups. The blood samples were collected in a K2-ethylenediaminetetraacetic acid (EDTA) vacutainer, centrifuged at 4 ℃ and 3000 rpm for 10 min, and stored at − 70 ℃ until analysis.
# Plasma concentrations of venadaparib were determined using validated high-performance liquid chromatography (Exion LC, AB Sciex) coupled with mass spectrometry (Triple Quad 5500+, AB Sciex). Venadaparib as an analyte and olaparib as the internal standard were separated using a Gemini 3 μm NX-C18 110 Å (100 × 3 mm) column (Phenomenex, CA, USA) at 40 ℃. The mobile phase comprised 0.1% formic acid in distilled water and 100% acetonitrile at a flow rate of 0.3 mL/minute. Venadaparib and olaparib were detected with a turbo-ion spray in positive ionization mode at an m/z transition of 407.2 → 70.0 and 435.2 → 281.1, respectively.
# The calibration curve for venadaparib ranged from 5 to 5000 μg/L, with precision and accuracy ranging from 1.89 to 4.00% and 92.98 to 102.80%, respectively. For the quality control sample data of venadaparib, the precision and accuracy ranged from 4.38 to 5.18% and 96.75 to 102.59%, respectively.
# The PK parameters of venadaparib were calculated by a non-compartmental method using Phoenix WinNonlin software version 8.3.4 (Certara, NJ, USA). The area under the plasma concentration-time curve (AUC) was determined using the linear-up log-down trapezoidal method. The primary PK parameters were Cmax and AUC from time zero to the last measurable time point (AUClast) for comparison between the exposures to the effects of food and ethnicity. The following secondary PK parameters were calculated: AUC from time zero to infinity (AUCinf), time to reach Cmax (Tmax), t1/2, apparent total clearance (CL/F), and apparent volume of distribution (Vd/F).
# Statistical analyses were conducted using SAS software version 9.4 (SAS Institute Inc., NC, USA). The primary PK parameters in the fed and fasted states were compared by estimating the geometric mean ratios and 90% confidence intervals using a linear mixed-effects model. The model included the sequence, period, and treatment as fixed effects, and the subject nested within the sequence as a random effect. Analysis of variance (ANOVA) tests were conducted to assess possible differences in the values of the primary PK parameters among the ethnic groups in the fasted state.
# PARP2 = test system: PARP2; set-up: method as in PMID 36808277; details: cited from earlier work
# PARP5 = test system: PARP5; set-up: method as in PMID 36808277; details: cited from earlier work
# [6] = test system: patient-derived xenograft; set-up: method as in PMID 36808277; details: patient-derived xenograft mouse model; cited from earlier work
# PARP1 = test system: PARP1; set-up: method as in PMID 36808277; details: cited from earlier work
# PARP = test system: PARP; set-up: method as in PMID 36808277, PMID 24162931, PMID 33657415; details: cited from earlier work
# [7] = Caucasian, fasted state (N = 12)
compound,measurement,setting,value
O=C(c1cc(Cc2n[nH]c(=O)c3ccccc23)ccc1F)N1CC(CNC2CC2)C1 [venadaparib],Mean elimination half-life (t1/2),"[1]; Korean patients with advanced solid tumors, 2–240 mg/day",7 to 13 h
same,Safety and tolerability of multiple three-week administrations,"[1]; dose range 2–240 mg/day, Korean patients",safe and well-tolerated
same,Relationship of systemic exposure to dose,[1]; dose range 2–240 mg/day,dose-proportional
same,IC50 compared with those of olaparib,PARP3,higher
same,Infections and infestations: number of events,[2],1
same,Infections and infestations: number of subjects (percentage of subjects),[2],1 (8.3)
same,Oral herpes: number of events,[2]; po,1
same,Oral herpes: number of subjects (percentage of subjects),[2]; po,1 (8.3)
same,"Antitumor potency, fold higher than that of olaparib",[3],40–440 fold
same,"Activity of inhibiting poly(ADP-ribose) formation, relative to talazoparib",[4],comparable
same,AUCinf,[5]; [7],14202.62 ± 4352.38 ng·h/mL
same,AUClast,[5]; [7],14091.32 ± 4285.15 ng·h/mL
same,CL/F,[5]; [7],6.10 ± 1.73 L/h
same,Cmax,[5]; [7],2392.29 ± 464.48 ng/mL
same,Vd/F,[5]; [7],72.52 ± 18.25 L
same,t1/2,[5]; [7],9.32 ± 4.98 h
same,Tmax,[5]; [7],0.50 (0.50–2.00) h
same,AUCinf,"[5]; Caucasian, fed state (N = 12)",13752.20 ± 4522.49 ng·h/mL
same,AUClast,"[5]; Caucasian, fed state (N = 12)",13557.03 ± 4401.60 ng·h/mL
same,CL/F,"[5]; Caucasian, fed state (N = 12)",6.33 ± 1.78 L/h
same,Cmax,"[5]; Caucasian, fed state (N = 12)",1894.30 ± 602.49 ng/mL
same,Vd/F,"[5]; Caucasian, fed state (N = 12)",124.29 ± 71.28 L
same,t1/2,"[5]; Caucasian, fed state (N = 12)",14.16 ± 7.16 h
same,Tmax,"[5]; Caucasian, fed state (N = 12)",2.00 (1.00–4.00) h
same,AUCinf geometric mean ratio (90% confidence interval),"[5]; Caucasian, 80 mg",0.96 (0.9074–1.0260)
same,AUClast geometric mean ratio (90% confidence interval),"[5]; Caucasian, 80 mg",0.96 (0.9017–1.0186)
same,Cmax geometric mean ratio (90% confidence interval),"[5]; Caucasian, 80 mg",0.77 (0.6871–0.8609)
same,Decrease of Cmax in the fed state compared with the fasted state,"[5]; Caucasians, 80 mg",23%
same,AUCinf,"[5]; Chinese, fasted state (N = 12)",14981.87 ± 4276.66 ng·h/mL
same,AUClast,"[5]; Chinese, fasted state (N = 12)",14878.51 ± 4254.97 ng·h/mL
same,CL/F,"[5]; Chinese, fasted state (N = 12)",5.84 ± 2.02 L/h
same,Cmax,"[5]; Chinese, fasted state (N = 12)",2390.12 ± 576.02 ng/mL
same,Vd/F,"[5]; Chinese, fasted state (N = 12)",53.23 ± 20.51 L
same,t1/2,"[5]; Chinese, fasted state (N = 12)",6.95 ± 4.18 h
same,Tmax,"[5]; Chinese, fasted state (N = 12)",1.00 (0.50–2.00) h
same,AUCinf,"[5]; Korean, fasted state (N = 12)",12453.18 ± 3565.66 ng·h/mL
same,AUClast,"[5]; Korean, fasted state (N = 12)",12347.13 ± 3514.30 ng·h/mL
same,CL/F,"[5]; Korean, fasted state (N = 12)",6.92 ± 1.95 L/h
same,Cmax,"[5]; Korean, fasted state (N = 12)",2165.59 ± 446.08 ng/mL
same,Vd/F,"[5]; Korean, fasted state (N = 12)",83.84 ± 48.70 L
same,t1/2,"[5]; Korean, fasted state (N = 12)",9.06 ± 6.08 h
same,Tmax,"[5]; Korean, fasted state (N = 12)",0.50 (0.50–2.00) h
same,AUCinf,"[5]; Korean, fed state (N = 12)",13108.90 ± 5771.31 ng·h/mL
same,AUClast,"[5]; Korean, fed state (N = 12)",12972.02 ± 5734.25 ng·h/mL
same,CL/F,"[5]; Korean, fed state (N = 12)",6.95 ± 2.29 L/h
same,Cmax,"[5]; Korean, fed state (N = 12)",1835.01 ± 637.11 ng/mL
same,Vd/F,"[5]; Korean, fed state (N = 12)",104.18 ± 57.31 L
same,t1/2,"[5]; Korean, fed state (N = 12)",10.80 ± 5.10 h
same,Tmax,"[5]; Korean, fed state (N = 12)",2.00 (0.50–4.00) h
same,AUCinf geometric mean ratio (90% confidence interval),"[5]; Korean, 80 mg",1.02 (0.9126–1.1360)
same,AUClast geometric mean ratio (90% confidence interval),"[5]; Korean, 80 mg",1.02 (0.9088–1.1339)
same,Cmax geometric mean ratio (90% confidence interval),"[5]; Korean, 80 mg",0.82 (0.7457–0.9094)
same,Reduction of peak concentrations after a high-fat meal,"[5]; Koreans and Caucasians, 80 mg",approximately 20%
same,Decrease of Cmax in the fed state compared with the fasted state,"[5]; Koreans, 80 mg",18%
same,"PK profiles among the Korean, Caucasian, and Chinese subjects","[5]; fasted state, 80 mg",comparable
same,Effect of the high-fat meal on overall systemic exposure,"[5]; fed vs fasted state, 80 mg",not significantly affected
same,IC50 compared with those of olaparib,PARP2,similar
same,IC50 compared with those of olaparib,PARP5,higher
same,Tumor growth inhibition rate,[6],131.0–135.2%
same,IC50 compared with those of olaparib,PARP1,similar
same,"Activity of trapping PARP, relative to talazoparib",PARP,comparable
